Test results reported in the supplement of paper PMC10307832.

How the values were obtained:
Assay in all cases: relative viability (nuclei count vs DMSO), 5 days (fraction); higher = more cells survive
VX-702 + Linsitinib = compound: NC(=O)c1ccc(N(C(N)=O)c2c(F)cccc2F)nc1-c1ccc(F)cc1F [VX-702] + C[C@]1(O)C[C@@H](c2nc(-c3ccc4ccc(-c5ccccc5)nc4c3)c3c(N)nccn32)C1 [Linsitinib] (partner 1 µM)
Summary of the method: (§1)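 Lung cancer cell lines, seeded in 1536-well plates, were treated the following day by pin tool with a single drug or with five library-drug doses (not always all listed) in √10 steps on top of a fixed anchor-drug dose. Cells were fixed and nuclei stained in one step after 5 days, and nuclei were counted. Relative viability is the nuclei count for treated wells divided by that for vehicle wells, reported as medians of duplicate plates.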

Dabrafenib + Palbociclib = compound: CC(C)(C)c1nc(-c2cccc(NS(=O)(=O)c3c(F)cccc3F)c2F)c(-c2ccnc(N)n2)s1 [Dabrafenib] + CC(=O)c1c(C)c2cnc(Nc3ccc(N4CCNCC4)cn3)nc2n(C2CCCC2)c1=O [Palbociclib] (partner 0.5 µM)
Summary of the method: as §1

VX-702 + Crizotinib = compound: NC(=O)c1ccc(N(C(N)=O)c2c(F)cccc2F)nc1-c1ccc(F)cc1F [VX-702] + C[C@@H](Oc1cc(-c2cnn(C3CCNCC3)c2)cnc1N)c1c(Cl)ccc(F)c1Cl [Crizotinib] (partner 1 µM)
Summary of the method: as §1

Dabrafenib + Navitoclax = compound: CC(C)(C)c1nc(-c2cccc(NS(=O)(=O)c3c(F)cccc3F)c2F)c(-c2ccnc(N)n2)s1 [Dabrafenib] + CC1(C)CCC(c2ccc(Cl)cc2)=C(CN2CCN(c3ccc(C(=O)NS(=O)(=O)c4ccc(N[C@H](CCN5CCOCC5)CSc5ccccc5)c(S(=O)(=O)C(F)(F)F)c4)cc3)CC2)C1 [Navitoclax] (partner 0.5 µM)
Summary of the method: as §1

Row | Cell Line | relative viability (VX-702 + Linsitinib; first compound 0.02 µM) | relative viability (VX-702 + Linsitinib; first compound 0.2 µM) | relative viability (VX-702 + Linsitinib; first compound 0.6325 µM) | relative viability (VX-702 + Linsitinib; first compound 2 µM) | relative viability (Dabrafenib + Palbociclib; first compound 0.003 µM) | relative viability (Dabrafenib + Palbociclib; first compound 0.009487 µM) | relative viability (Dabrafenib + Palbociclib; first compound 0.03 µM) | relative viability (Dabrafenib + Palbociclib; first compound 0.09487 µM) | relative viability (Dabrafenib + Palbociclib; first compound 0.3 µM) | relative viability (VX-702 + Crizotinib; first compound 0.02 µM) | relative viability (VX-702 + Crizotinib; first compound 0.2 µM) | relative viability (VX-702 + Crizotinib; first compound 0.6325 µM) | relative viability (VX-702 + Crizotinib; first compound 2 µM) | relative viability (Dabrafenib + Navitoclax; first compound 0.003 µM) | relative viability (Dabrafenib + Navitoclax; first compound 0.009487 µM) | relative viability (Dabrafenib + Navitoclax; first compound 0.03 µM) | relative viability (Dabrafenib + Navitoclax; first compound 0.09487 µM) | relative viability (Dabrafenib + Navitoclax; first compound 0.3 µM)
1 | NCI-H460 | 0.879 | 0.837 | 0.825 | 0.814 | 0.229 | 0.1 | 0.148 | 0.226 | 0.111 | 0.835 | 0.951 | 0.958 | 1.05 | 1.17 | 1.14 | 1.26 | 0.998 | 1.06
2 | NCI-H838 | 1.01 | 0.959 | 0.977 | 1.2 | 0.207 | 0.238 | 0.209 | 0.214 | 0.236 | 0.779 | 0.755 | 0.807 | 0.976 | 1.22 | 1.29 | 1.13 | 1.11 | 1.28
3 | NCI-H2087 | 1.07 | 0.982 | 0.879 | 1.01 |  | 0.218 | 0.246 | 0.235 | 0.208 | 0.847 | 0.862 | 0.867 | 0.739 | 0.947 | 0.881 | 0.893 | 0.842 | 0.892
4 | HCC-827 | 0.931 | 0.927 | 0.953 | 0.71 | 0.465 | 0.3 | 0.374 |  | 0.525 | 0.922 | 0.9 | 0.869 | 0.906 | 0.997 | 1.02 | 0.97 | 1.01 | 1.01
5 | NCI-H1755 | 1.02 | 0.967 | 1.01 | 0.725 | 0.429 | 0.425 | 0.435 | 0.411 | 0.415 | 0.919 | 0.784 | 0.894 | 0.972 | 0.949 | 0.938 | 0.75 | 0.964 | 0.997
6 | SK-LU-1 | 1.06 | 1.03 | 1.08 | 1.22 |  | 0.395 | 0.238 | 0.365 | 0.371 | 0.96 | 0.751 | 0.934 | 0.963 | 0.557 | 0.789 | 0.806 | 0.709 | 0.567
7 | NCI-H2347 | 0.968 | 0.977 | 0.896 | 0.986 |  | 0.513 | 0.471 | 0.476 | 0.432 | 0.733 | 0.763 | 0.858 | 0.731 | 0.536 | 0.92 | 0.733 | 0.766 | 0.752
8 | NCI-H2023 | 0.568 | 0.561 | 0.629 | 0.612 | 0.419 | 0.417 | 0.48 | 0.371 | 0.421 | 0.586 | 0.563 | 0.555 | 0.698 | 1.06 | 1.03 | 0.995 | 0.915 | 1.05
9 | NCI-H1944 | 1.07 | 1.06 | 1.31 | 0.903 | 0.325 | 0.342 | 0.326 | 0.319 | 0.318 | 0.963 | 1.01 | 0.985 | 0.829 | 0.954 | 1.03 | 0.971 | 0.968 | 0.899
10 | NCI-H2126 | 0.726 | 0.697 | 0.67 | 0.634 | 0.294 | 0.333 | 0.373 | 0.359 | 0.382 | 1.04 | 1.13 | 1.05 | 1.08 | 0.779 | 0.887 | 0.823 | 0.866 | 0.956
11 | SW 1573 | 0.918 | 0.737 | 0.647 | 0.659 | 0.431 | 0.484 | 0.363 | 0.349 | 0.392 | 0.8 | 0.721 | 0.773 | 0.784 | 1.13 | 1.04 | 0.998 | 0.755 | 1.06
12 | EPLC-272H | 1 | 1.1 | 1.13 | 1.28 |  | 0.318 | 0.286 | 0.366 | 0.354 | 0.968 | 0.773 | 0.983 | 1.16 |  | 1.39 | 0.997 | 0.875 | 0.824
13 | NCI-H1651 | 0.876 | 1.09 | 0.967 | 1 | 0.499 | 0.494 | 0.51 | 0.524 | 0.505 | 0.79 | 0.889 | 0.831 | 0.935 | 1.15 | 1.03 | 0.997 | 1.01 | 1.03
14 | NCI-H23 | 0.517 | 0.528 | 0.545 | 0.754 |  | 0.575 | 0.465 | 0.455 | 0.634 | 0.524 | 0.523 | 0.678 | 0.756 |  | 0.855 | 0.755 | 0.795 | 0.957
15 | NCI-H727 | 0.516 | 0.271 | 0.259 | 0.306 | 0.598 | 0.64 |  | 0.719 | 0.675 | 0.826 | 0.745 | 0.841 | 0.961 |  | 0.608 | 0.543 | 0.545 | 0.825
16 | NCI-H1993 | 0.712 | 0.718 | 0.745 | 0.8 | 0.672 | 0.786 | 0.746 | 0.664 | 0.701 | 0.882 | 0.717 | 0.852 | 0.792 | 0.834 | 1.04 | 0.902 | 1.08 | 1.17
17 | NCI-H2405 | 0.914 | 0.981 | 0.896 | 0.982 |  | 0.555 | 0.374 | 0.491 | 0.485 | 0.791 | 0.813 | 0.774 | 0.99 |  | 0.697 |  | 0.734 | 0.73
18 | HCC-366 | 0.592 | 0.375 | 0.615 | 0.47 | 0.434 | 0.403 | 0.336 | 0.354 | 0.344 | 0.588 | 0.396 | 0.525 | 0.601 |  | 1.02 | 0.963 | 1.05 | 1.11
